Experimental data reported in ChEMBL document CHEMBL5729124, “Autotaxin inhibitor compounds” (2022).

What follows are compounds tested against Autotaxin (Homo sapiens, UniProt Q13822) (assay: Human Autotaxin Assay: ATX activity is assayed in concentrated conditioned media from Hep3B human hepatocellular carcinoma cells by measuring the amount of choline released from the substrate, lysophosphatidylcholine (LPC) as it is cleaved to LPA. Conditioned media is collected from confluent Hep3B cells and concentrated 20-fold using Centriprep-30 filter devices (Millipore).).

Row | SMILES | IC50
1 | CCCn1cc(-n2c(Br)c(Sc3cccc(C(=O)O)c3)c3ccc(Cl)cc32)cn1 | < 500 nM
2 | C#CCCCCn1cc(-n2c(C3CC3)c(Sc3cccc(C(=O)O)c3F)c3ccc(Cl)c(F)c32)cn1 | < 500 nM
3 | CC(C)(CO)Cn1cc(-n2c(C3CC3)c(Sc3cccc(C(=O)O)c3F)c3ccc(Cl)c(F)c32)cn1 | < 500 nM
